Data taken from patent publication US10138207B2, “Benzomorphan analogs and the use thereof” (priority 2012, dated 2018).

Tests used:
μ-opioid receptor [1] = target: T1, μ-opioid receptor (Homo sapiens, UniProt P35372); assay: μ-opioid receptor [35S]GTPγS functional assay, HEK-293 or CHO cells; settings: for Emax: read-out: GTPγS μ Emax
κ opioid receptor = κ opioid receptor (Homo sapiens, UniProt P41145); assay: biochemical; assay type: binding; parameters: expressed in transfected cells; host or cells: HEK 293 (in-house membrane prep); settings: HEK-293 or CHO cells
κ opioid receptor, sequence (P41145 whole entry): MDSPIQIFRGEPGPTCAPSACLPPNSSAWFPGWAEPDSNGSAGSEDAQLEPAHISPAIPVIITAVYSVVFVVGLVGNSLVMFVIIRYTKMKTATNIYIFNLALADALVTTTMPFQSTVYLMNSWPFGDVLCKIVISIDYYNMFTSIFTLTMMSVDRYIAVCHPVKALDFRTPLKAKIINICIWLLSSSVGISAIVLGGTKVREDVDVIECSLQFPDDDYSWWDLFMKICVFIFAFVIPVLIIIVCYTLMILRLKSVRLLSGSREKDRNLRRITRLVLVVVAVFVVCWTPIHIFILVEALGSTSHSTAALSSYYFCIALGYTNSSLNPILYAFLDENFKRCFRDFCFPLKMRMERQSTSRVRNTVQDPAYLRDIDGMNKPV

μ-opioid receptor [2] = target: T1, μ-opioid receptor; assay: μ-opioid receptor [35S]GTPγS functional assay, U-2 OS cells; assay type: biochemical; parameters: expressed in transfected cells; host or cells: U-2 OS; settings: for Emax: relative to DAMGO, read-out: GTPγS μ Emax
[3] = U-2 OS cells, read-out: GTPγS μ EC50

T1 sequence (P35372 whole entry, species assumed): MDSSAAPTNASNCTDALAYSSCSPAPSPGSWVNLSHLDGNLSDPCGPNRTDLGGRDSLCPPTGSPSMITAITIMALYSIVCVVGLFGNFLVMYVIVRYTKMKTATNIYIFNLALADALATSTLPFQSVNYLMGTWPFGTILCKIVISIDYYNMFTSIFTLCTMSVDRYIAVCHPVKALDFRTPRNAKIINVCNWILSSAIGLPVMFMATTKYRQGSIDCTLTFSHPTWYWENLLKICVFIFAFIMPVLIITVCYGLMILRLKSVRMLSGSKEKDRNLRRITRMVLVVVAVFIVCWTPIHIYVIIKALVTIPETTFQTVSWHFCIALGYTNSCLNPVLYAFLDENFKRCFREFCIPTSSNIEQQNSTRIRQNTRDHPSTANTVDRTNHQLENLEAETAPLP

Row | Compound | EC50 (μ-opioid receptor [1]) [µM] | Emax (μ-opioid receptor [1]) [%] | Ki (κ opioid receptor) [µM] | Ki (κ opioid receptor; bound in μM) [µM] | other results
1 | CN1CC[C@]2(C)c3cc(O)ccc3CC1[C@@H]2COc1cncc(C(=O)O)c1 [Compound 34, 5-(((6S,11R)-8-hydroxy-3,6-dimethyl-1,2,3,4,5,6-hexahydro-2,6-methanobenzo[d]azocin-11-yl)methoxy)nicotinic acid] | 3.64 ± 0.373 | 16 ± 3.46 | 5.99 ± 0.604 | – | –
2 | CN1CC[C@]2(C)c3cc(O)ccc3C[C@@H]1[C@H]2N(C)C(=O)c1cccc(C(=O)O)c1 [Compound 47, 3-(((2R,6R,11S)-8-hydroxy-3,6-dimethyl-1,2,3,4,5,6-hexahydro-2,6-methanobenzo[d]azocin-11-yl)(methyl)carbamoyl)benzoic acid] | 8.89 ± 0.655 | 58.7 ± 5.24 | 20 | – | –
3 | CN1CC[C@]2(C)c3cc(O)ccc3CC1C2N(C)C(=O)c1ccccc1C(=O)O (stereo in doubt) [Compound 49, 2-(((2R,6R,11S)-8-hydroxy-3,6-dimethyl-1,2,3,4,5,6-hexahydro-2,6-methanobenzo[d]azocin-11-yl)(methyl)carbamoyl)benzoic acid] | > 20 | 31.3 ± 5.36 | – | > 20 | –
4 | COc1ccc2c(c1)[C@@]1(C)CCN(C)C(C2)[C@@]1(O)c1cccc(C#N)c1 [Compound 60, 3-((6R,11R)-11-hydroxy-8-methoxy-3,6-dimethyl-1,2,3,4,5,6-hexahydro-2,6-methanobenzo[d]azocin-11-yl)benzonitrile] | 6.09 ± 0.529 | 38.3 ± 0.88 | – | > 20 | –
5 | CN[C@H]1C2Cc3ccc(OC)cc3[C@@]1(C)CCN2C [Compound 9, (6R,11R)-8-methoxy-N,3,6-trimethyl-1,2,3,4,5,6-hexahydro-2,6-methanobenzo[d]azocin-11-amine] | – | – | 18.9 ± 3.13 | – | –
6 | CN1CC[C@]2(C)c3cc(O)ccc3CC1[C@@H]2CC(=O)N1CCC[C@H]1C(=O)O [Compound 55, (2S)-1-(2-((6S,11R)-8-hydroxy-3,6-dimethyl-1,2,3,4,5,6-hexahydro-2,6-methanobenzo[d]azocin-11-yl)acetyl)pyrrolidine-2-carboxylic acid] | 5.91 ± 0.422 | 71 ± 8.08 | – | > 20 | –
7 | COc1ccc2c(c1)[C@@]1(C)CCN(C)C(C2)[C@]1(O)c1cccc(C#N)c1 [Compound 37, 3-((6R,11S)-11-hydroxy-8-methoxy-3,6-dimethyl-1,2,3,4,5,6-hexahydro-2,6-methanobenzo[d]azocin-11-yl)benzonitrile] | > 20 | – | – | > 20 | –
8 | CN1CCC2(C)C(=NO)C1Cc1ccc(O)cc12 (centres unmarked) [Compound 18, 8-hydroxy-3,6-dimethyl-1,2,3,4,5,6-hexahydro-2,6-methanobenzo[d]azocin-11-one oxime] | – | – | 5.58 ± 1.01 | – | –
9 | COc1ccc2c(c1)[C@@]1(C)CCN(C)C(C2)[C@@H]1c1cccc(OCc2ccccc2)c1 [Compound 61, (6S,11R)-11-(3-(benzyloxy)phenyl)-8-methoxy-3,6-dimethyl-1,2,3,4,5,6-hexahydro-2,6-methanobenzo[d]azocine] | 5.76 ± 1.55 | 26.7 ± 0.88 | 2.77 ± 0.85 | – | –
10 | CN1CC[C@]2(C)c3cc(O)ccc3CC1[C@@H]2C(=O)Nc1ccc(C(=O)O)cc1 [Compound 52, 4-((6S,11R)-8-hydroxy-3,6-dimethyl-1,2,3,4,5,6-hexahydro-2,6-methanobenzo[d]azocine-11-carboxamido)benzoic acid] | 1.03 ± 0.0731 | 72.3 ± 3.48 | – | > 20 | –
11 | CN1CC[C@]2(C)c3cc(O)ccc3C[C@@H]1[C@H]2COc1cccc(C(=O)O)c1 [Compound 41, 3-(((2R,6S,11S)-8-hydroxy-3,6-dimethyl-1,2,3,4,5,6-hexahydro-2,6-methanobenzo[d]azocin-11-yl)methoxy)benzoic acid] | 1.22 ± 0.235 | 46 ± 3.79 | 1.88 ± 0.28 | – | –
12 | CN1CC[C@]2(C)c3cc(O)ccc3CC1[C@@H]2COc1cc(C(N)=O)ccn1 [Compound 53, 2-(((6S,11R)-8-hydroxy-3,6-dimethyl-1,2,3,4,5,6-hexahydro-2,6-methanobenzo[d]azocin-11-yl)methoxy)isonicotinamide] | 1.11 ± 0.21 | 82.7 ± 1.2 | 0.701 ± 0.058 | – | –
13 | CCOC(=O)/C=C1\C2Cc3ccc(OC)cc3C1(C)CCN2C (centres unmarked) [Compound 12] | – | – | – | > 20 | –
14 | CN1CC[C@]2(C)c3cc(O)ccc3CC1C2N(C)C(=O)CCC(=O)O (stereo in doubt) [Compound 28, 4-(((2R,6R,11S)-8-hydroxy-3,6-dimethyl-1,2,3,4,5,6-hexahydro-2,6-methanobenzo[d]azocin-11-yl)(methyl)amino)-4-oxobutanoic acid] | – | – | 18.2 | – | EC50 (μ-opioid receptor [2]; [3]): 1.56 ± 0.106 µM; Emax (μ-opioid receptor [2]; U-2 OS cells): 74.7 ± 4.63%
15 | COc1ccc2c(c1)[C@@]1(C)CCN(CC3CC3)[C@H](C2)[C@H]1N(C)C(=O)/C=C/c1ccoc1 [Compound 85, (E)-N-((2R,6R,11S)-3-(cyclopropylmethyl)-8-methoxy-6-methyl-1,2,3,4,5,6-hexahydro-2,6-methanobenzo[d]azocin-11-yl)-3-(furan-3-yl)-N-methylacrylamide] | – | – | 0.701 ± 0.0941 | – | EC50 (μ-opioid receptor [2]; [3]): 3.24 ± 0.77 µM; Emax (μ-opioid receptor [2]; U-2 OS cells): 19.3 ± 2.33%
16 | COc1ccc2c(c1)C1(C)CCN(CCC(C(=O)N(C)C)(c3ccccc3)c3ccccc3)C(C2)C1=NO (centres unmarked) [Compound 19, 4-(11-(hydroxyimino)-8-methoxy-6-methyl-1,2,5,6-tetrahydro-2,6-methanobenzo[d]azocin-3(4H)-yl)-N,N-dimethyl-2,2-diphenylbutanamide] | – | – | 8.52 ± 0.605 | – | –
17 | CN1CC[C@]2(C)c3cc(O)ccc3C[C@@H]1[C@H]2N(C)C(=O)Nc1ccc(C#N)cc1 [Compound 79, 3-(4-cyanophenyl)-1-((2R,6R,11S)-8-hydroxy-3,6-dimethyl-1,2,3,4,5,6-hexahydro-2,6-methanobenzo[d]azocin-11-yl)-1-methylurea] | – | – | 3.14 ± 0.805 | – | EC50 (μ-opioid receptor [2]; [3]): 2.2 ± 0.668 µM; Emax (μ-opioid receptor [2]; U-2 OS cells): 49 ± 3.46%
18 | COc1ccc2c(c1)[C@@]1(C)CCN(C)C(C2)C1NC(=O)/C=C/c1ccoc1 (stereo in doubt) [Compound 23, (E)-3-(furan-3-yl)-N-((2R,6R,11S)-8-methoxy-3,6-dimethyl-1,2,3,4,5,6-hexahydro-2,6-methanobenzo[d]azocin-11-yl)acrylamide] | – | – | 13.2 | – | –
19 | COc1ccc2c(c1)[C@@]1(C)CCN(C)C(C2)[C@@H]1CC(=O)O [Compound 15, 2-((6S,11R)-8-methoxy-3,6-dimethyl-1,2,3,4,5,6-hexahydro-2,6-methanobenzo[d]azocin-11-yl)acetic acid] | – | – | – | > 20 | –
20 | CCOC(=O)C[C@H]1C2Cc3ccc(OC)cc3[C@@]1(C)CCN2C [Compound 14, ethyl 2-((6S,11R)-8-methoxy-3,6-dimethyl-1,2,3,4,5,6-hexahydro-2,6-methanobenzo[d]azocin-11-yl)acetate] | – | – | 14.3 | – | –
21 | CON=C1C2Cc3ccc(OC)cc3C1(C)CCN2CC1CC1 (centres unmarked) [Compound 10, 3-(cyclopropylmethyl)-8-methoxy-6-methyl-1,2,3,4,5,6-hexahydro-2,6-methanobenzo[d]azocin-11-one O-methyl Oxime] | – | – | 2.14 ± 0.151 | – | –
22 | COc1ccc2c(c1)[C@@]1(C)CCN(C)C(C2)[C@H]1N(C)C(=O)/C=C/c1ccoc1 [Compound 20, (E)-3-(furan-3-yl)-N-((6R,11S)-8-methoxy-3,6-dimethyl-1,2,3,4,5,6-hexahydro-2,6-methanobenzo[d]azocin-11-yl)-N-methylacrylamide] | – | – | 1.95 ± 0.538 | – | –
23 | CN(C)C(=O)C(CCN1CC[C@]2(C)c3cc(O)ccc3CC1C2N(C)C(=O)Nc1ccc(C#N)cc1)(c1ccccc1)c1ccccc1 (stereo in doubt) [Compound 84, 4-((2R,6R,11S)-11-(3-(4-cyanophenyl)-1-methylureido)-8-hydroxy-6-methyl-1,2,5,6-tetrahydro-2,6-methanobenzo[d]azocin-3(4H)-yl)-N,N-dimethyl-2,2-diphenylbutanamide] | – | – | 0.269 ± 0.0277 | – | EC50 (μ-opioid receptor [2]; [3]): 0.0839 ± 0.0133 µM; Emax (μ-opioid receptor [2]; U-2 OS cells): 90.7 ± 1.86%
24 | CN[C@@H]1C2Cc3ccc(OC)cc3[C@@]1(C)CCN2C [Compound 8, (6R,11S)-8-methoxy-N,3,6-trimethyl-1,2,3,4,5,6-hexahydro-2,6-methanobenzo[d]azocin-11-amine] | – | – | – | > 20 | –
25 | CN(C)C(=O)C(CCN1CC[C@]2(C)c3cc(O)ccc3CC1[C@@H]2O)(c1ccccc1)c1ccccc1 [Compound 21, 4-((6R,11R)-8,11-dihydroxy-6-methyl-1,2,5,6-tetrahydro-2,6-methanobenzo[d]azocin-3(4H)-yl)-N,N-dimethyl-2,2-diphenylbutanamide] | – | – | 1.22 ± 0.332 | – | –
26 | COc1ccc2c(c1)[C@@]1(C)CCN(C)C(C2)[C@@H]1CO [Compound 11, ((6S,11R)-8-methoxy-3,6-dimethyl-1,2,3,4,5,6-hexahydro-2,6-methanobenzo[d]azocin-11-yl)methanol] | – | – | – | > 20 | –
27 | COc1ccc2c(c1)[C@@]1(C)CCN(C)[C@@H](C2)C1=NNC(=O)c1ccc(F)cc1 [Compound 26, 4-fluoro-N′-((2S,6R)-8-methoxy-3,6-dimethyl-1,2,3,4,5,6-hexahydro-2,6-methanobenzo[d]azocin-11-ylidene)benzohydrazide] | – | – | – | > 20 | EC50 (μ-opioid receptor [2]; GTPγS μ EC50, U-2 OS cells): 1.19 ± 0.0939 µM; Emax (μ-opioid receptor [2]; U-2 OS cells): 91 ± 7.09%
28 | COc1ccc2c(c1)[C@@]1(C)CCN(CC3CC3)[C@H](C2)[C@H]1N(C)C(=O)/C=C\c1ccoc1 [Compound 86, (Z)—N-((2R,6R,11S)-3-(cyclopropylmethyl)-8-methoxy-6-methyl-1,2,3,4,5,6-hexahydro-2,6-methanobenzo[d]azocin-11-yl)-3-(furan-3-yl)-N-methylacrylamide] | – | – | 0.979 ± 0.146 | – | EC50 (μ-opioid receptor [2]; [3]): 2.15 ± 0.21 µM; Emax (μ-opioid receptor [2]; U-2 OS cells): 14.7 ± 0.88%
29 | COc1ccc2c(c1)[C@@]1(C)CCN(CC3CC3)C(C2)[C@H]1N(C)C(=O)Nc1ccc(C(N)=O)cc1 [Compound 82] | – | – | 10.2 | – | EC50 (μ-opioid receptor [2]; U-2 OS cells, bound in μM, read-out: GTPγS μ EC50): > 20 µM; Emax (μ-opioid receptor [2]; U-2 OS cells): 31.7 ± 5.36%
